Assay results from patent publication US20190374506A1, “COMPOSITIONS AND METHODS FOR TREATING CANCER” (BETH ISREAL DEACONESS MEDICAL CENTER, priority 2016, published 2019).

Tests used:
WWP1 = WWP1 (Homo sapiens, UniProt Q9H0M0); assay: MicroScale Thermophoresis (MST) binding analysis of I3C towards WWP1
From the text: FIG. 10B provides the MST analysis of I3C towards WWP1. […] When I3C was superimposed onto the covalent inhibitor and WWP1 onto NEDD4-1, a model was generated showing I3C-bound WWP1 with the binding pocket formed by residues F577, L630, Y628, C629, N650, and Y656. […] The experiments of this example next confirmed this hypothesis by MicroScale Thermophoresis (MST) binding analysis.

[1] = system: PTEN/AKT pathway in PC3 cells (PTEN-null); assay: Western blot analysis of PTEN/AKT pathway in PC3 cells; format: cell-based, human; conditions: different doses of I3C for 3 Days
Method: FIG. 11B provides an analysis of effects of I3C on PTEN/AKT pathway in DU145 or PC3 cells by western blot analysis. Cells were treated with different doses of I3C for 3 Days, and followed by western blot analysis. Whether targeting WWP1/NEDD4-1, thereby enhancing PTEN dimerization and function, could offer a unique opportunity to treat MYC-driven cancers was investigated. […] As there is no small pharmacological inhibitor currently available to suppress/inhibit WWP1 activity, Indole-3-Carbinol (I3C), a potential WWP1 inhibitor, which suppresses the WWP1 activity through binding to its HECT domain, was used. First, to assess the on-target effects of I3C towards WWP1, Wwp1^−/− MEFs were used. […] Additionally, two independent PTEN stably knocked-down cells were generated. […] Western Blotting and Immunoprecipitation. For western blotting, cells were lysed in RIPA buffer (Boston BioProducts) supplemented with protease (Roche) and phosphatase (Roche) inhibitor. Proteins were separated on NuPAGE 4-12% Bis-Tris gradient gels (Invitrogen), transferred to polyvinylidine difluoride membranes (Immobilon P, Millipore) and the blots were probed with the indicated antibodies. For immunoprecipitation, PC3, 293T and MEF cells were transfected with the indicated expression vectors by using LIPOFECTAMIN 2000 (Life Technologies). […]

PC3 cells (PTEN-null) = assay: Growth curves, colorimetric MTT assay, PC3 cells; format: cell-based, human; conditions: various doses of I3C for 5 Days
From the text: (§1) FIG. 11C provides growth curves of DU145 (PTEN competent) or PC3 cells (PTEN null) treated with various doses of I3C for 5 Days, and then assayed with colorimetric MTT assay (three experiments). Whether targeting WWP1/NEDD4-1, thereby enhancing PTEN dimerization and function, could offer a unique opportunity to treat MYC-driven cancers was investigated. […] As there is no small pharmacological inhibitor currently available to suppress/inhibit WWP1 activity, Indole-3-Carbinol (I3C), a potential WWP1 inhibitor, which suppresses the WWP1 activity through binding to its HECT domain, was used. First, to assess the on-target effects of I3C towards WWP1, Wwp1^−/− MEFs were used. […] Additionally, two independent PTEN stably knocked-down cells were generated.

LNCaP cells (PTEN-null) = assay: Cell growth, LNCaP cells; format: cell-based, human
From the text: as §1, with “Whether” for “FIG. 11C provides growth curves of DU145 (PTEN competent) or PC3 cells (PTEN null) treated with various doses of I3C for 5 Days, and then assayed with colorimetric MTT assay (three experiments). Whether”

[2] = system: DU145 cells with PTEN depletion; assay: Growth curves, MTT assay, DU145 cells with stable PTEN shRNA knockdown; format: cell-based, human; conditions: two independent PTEN shRNAs, various doses of I3C for 5 Days
From the text: as §1, with “11D” for “11C”, “cells, stably expressing vector control” for “(PTEN competent)”, “two independent shRNAs,” for “PC3 cells (PTEN null)”

[3] = system: AKT activation in prostate spheres; assay: Western blot analysis of prostate spheres at P1 passage; format: cell-based, mouse; conditions: 20 μM I3C for 3 Days (low dose)
Method: FIG. 11G is a Western blot analysis of prostate spheres at P1 passage treated with 20 μM I3C for 3 Days.

NEDD4-1 = conditions: previous study (Aronchik et al., 2014); read-out: calculated equilibrium dissociation constant (Kd) with NEDD4-1; cited from earlier work

WWP1, sequence (Q9H0M0 whole entry): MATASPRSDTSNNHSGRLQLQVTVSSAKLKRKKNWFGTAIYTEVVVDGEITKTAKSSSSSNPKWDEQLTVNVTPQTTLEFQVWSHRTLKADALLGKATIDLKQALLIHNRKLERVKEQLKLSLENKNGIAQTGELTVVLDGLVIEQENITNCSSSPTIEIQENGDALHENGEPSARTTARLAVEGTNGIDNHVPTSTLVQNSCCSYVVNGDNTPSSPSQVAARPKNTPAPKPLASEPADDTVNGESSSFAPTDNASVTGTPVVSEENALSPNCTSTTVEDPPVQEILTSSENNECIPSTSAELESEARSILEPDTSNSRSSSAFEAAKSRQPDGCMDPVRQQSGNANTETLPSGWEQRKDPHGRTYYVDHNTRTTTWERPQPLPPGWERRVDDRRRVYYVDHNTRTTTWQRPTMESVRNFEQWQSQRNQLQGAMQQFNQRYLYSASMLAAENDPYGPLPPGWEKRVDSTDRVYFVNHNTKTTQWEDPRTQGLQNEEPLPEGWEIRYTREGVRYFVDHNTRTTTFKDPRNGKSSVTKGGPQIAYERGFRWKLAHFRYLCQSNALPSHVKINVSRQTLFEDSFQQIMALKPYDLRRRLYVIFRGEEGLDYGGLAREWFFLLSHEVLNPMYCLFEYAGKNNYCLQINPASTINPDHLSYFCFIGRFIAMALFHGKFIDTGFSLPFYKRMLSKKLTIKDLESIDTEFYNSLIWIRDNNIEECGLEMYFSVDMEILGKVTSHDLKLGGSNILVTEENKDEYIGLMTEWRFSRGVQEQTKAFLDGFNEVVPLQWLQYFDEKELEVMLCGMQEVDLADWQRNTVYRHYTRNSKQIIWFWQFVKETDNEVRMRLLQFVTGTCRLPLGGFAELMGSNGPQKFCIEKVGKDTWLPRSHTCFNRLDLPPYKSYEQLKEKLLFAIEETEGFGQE

binding affinity for WWP1 compared to NEDD4-1 (WWP1; MST Kd for WWP1 versus literature Kd for NEDD4-1): significantly stronger binding affinity
Kd (WWP1; MST binding analysis, read-out: dissociation constant (Kd) of I3C binding to WWP1): ~0.12 µM
Structure (SMILES): OCc1c[nH]c2ccccc12 [I3C, indole-3-carbinol]
effects on AKT suppression and apoptosis [1]: only negligible effects
cell growth (PC3 cells (PTEN-null)): only modestly suppressed cell growth
cell growth (LNCaP cells (PTEN-null)): only modestly suppressed cell growth
sensitivity of cells with PTEN depletion compared to control cells [2]: exhibited resistance
AKT activation driven by MYC expression ([3]; Hi-Myc prostate spheres): abolished AKT activation
apoptosis in Hi-Myc prostate spheres ([3]; Hi-Myc prostate spheres): concomitant apoptosis
AKT activation and apoptosis in WT prostate spheres ([3]; WT prostate spheres): not in WT prostate spheres
Kd (NEDD4-1): ~88.1 µM
